Data as given in patent US20240059671A1, “TYROSINE KINASE 2 (TYK2) DEGRADATION COMPOUNDS AND METHODS OF USE” (CULLGEN (SHANGHAI), INC., priority 2020, published 2024).

Biological target: TYK2 (Homo sapiens, UniProt P29597)
Assay: TYK2 protein degradation in NOMO-1 cells by immunoblotting
Format: cell-based
Set-up: endogenous in cells
Settings: NOMO-1 cells
Procedure, shortened: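 NOMO-1 cells in RPMI 1640 with 10% FBS were exposed to compound at 0.1–1000 nM for 16 hours. TYK2 levels in RIPA lysates were measured by SDS-PAGE immunoblot with chemiluminescent detection and band densitometry.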

TYK2, sequence (P29597 whole entry): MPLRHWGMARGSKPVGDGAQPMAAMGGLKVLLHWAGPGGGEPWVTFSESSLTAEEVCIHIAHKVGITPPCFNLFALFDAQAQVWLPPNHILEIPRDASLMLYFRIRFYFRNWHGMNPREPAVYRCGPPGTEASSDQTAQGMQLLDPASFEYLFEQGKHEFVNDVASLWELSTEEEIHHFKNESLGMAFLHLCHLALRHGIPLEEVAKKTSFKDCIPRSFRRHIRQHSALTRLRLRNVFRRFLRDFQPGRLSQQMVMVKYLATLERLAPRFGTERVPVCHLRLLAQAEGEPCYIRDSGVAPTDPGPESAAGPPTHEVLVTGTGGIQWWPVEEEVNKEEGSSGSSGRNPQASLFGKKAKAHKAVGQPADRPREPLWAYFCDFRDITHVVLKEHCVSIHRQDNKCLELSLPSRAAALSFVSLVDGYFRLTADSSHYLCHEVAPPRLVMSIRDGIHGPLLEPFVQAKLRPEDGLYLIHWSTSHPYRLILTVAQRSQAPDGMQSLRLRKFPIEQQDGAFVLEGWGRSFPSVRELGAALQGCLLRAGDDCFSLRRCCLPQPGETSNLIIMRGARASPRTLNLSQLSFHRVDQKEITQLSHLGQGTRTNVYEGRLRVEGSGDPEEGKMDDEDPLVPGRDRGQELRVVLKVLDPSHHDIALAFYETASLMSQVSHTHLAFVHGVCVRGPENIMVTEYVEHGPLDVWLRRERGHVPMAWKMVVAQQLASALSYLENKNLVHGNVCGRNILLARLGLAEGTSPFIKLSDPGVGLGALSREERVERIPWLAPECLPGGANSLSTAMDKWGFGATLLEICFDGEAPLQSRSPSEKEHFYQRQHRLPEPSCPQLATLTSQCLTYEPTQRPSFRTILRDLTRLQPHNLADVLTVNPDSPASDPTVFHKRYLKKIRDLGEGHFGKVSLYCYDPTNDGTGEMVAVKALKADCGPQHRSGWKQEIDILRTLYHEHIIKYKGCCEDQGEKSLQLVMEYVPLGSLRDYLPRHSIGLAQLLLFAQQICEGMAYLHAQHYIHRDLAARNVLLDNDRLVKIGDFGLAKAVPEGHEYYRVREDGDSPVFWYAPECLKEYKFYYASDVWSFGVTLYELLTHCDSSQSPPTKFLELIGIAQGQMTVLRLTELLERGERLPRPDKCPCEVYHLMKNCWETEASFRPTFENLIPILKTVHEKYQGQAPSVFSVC

Structure (SMILES) | TYK2 Degradation (NOMO-1, 100 nM) | TYK2 Degradation (NOMO-1, 10 nM)
CNC(=O)c1nnc(Nc2ccc(CNC(=O)CCCCCC(=O)N[C@H](C(=O)N3C[C@H](O)C[C@H]3C(=O)N[C@@H](C)c3ccc(-c4scnc4C)cc3)C(C)(C)C)cn2)cc1Nc1cccc(-c2ncn(C)n2)c1OC [CPD-130, N1-((S)-1-((2S,4R)-4-Hydroxy-2-(((S)-1-(4-(4-methylthiazol-5-yl)phenyl)ethyl)carbamoyl)pyrrolidin-1-yl)-3,3-dimethyl-1-oxobutan-2-yl)-N7-((6-((5-((2-methoxy-3-(1-methyl-1H-1,2,4-triazol-3-yl)phenyl)amino)-6-(methylcarbamoyl)pyridazin-3-yl)amino)pyridin-3-yl)methyl)heptanediamide] | B (B: <60% TYK2 degradation, and >20% TYK2 degradation) | 
CNC(=O)c1nnc(Nc2ccc(N3CCN(C4CCN(C(=O)CCCCCCCC(=O)N[C@H](C(=O)N5C[C@H](O)C[C@H]5C(=O)N[C@@H](C)c5ccc(-c6scnc6C)cc5)C(C)(C)C)CC4)CC3)cn2)cc1Nc1cccc(-c2ncn(C)n2)c1OC [CPD-150, 6-((5-(4-(1-(9-(((S)-1-((2S,4R)-4-hydroxy-2-(((S)-1-(4-(4-methylthiazol-5-yl)phenyl)ethyl)carbamoyl)pyrrolidin-1-yl)-3,3-dimethyl-1-oxobutan-2-yl)amino)-9-oxononanoyl)piperidin-4-yl)piperazin-1-yl)pyridin-2-yl)amino)-4-((2-methoxy-3-(1-methyl-1H-1,2,4-triazol-3-yl)phenyl)amino)-N-methylpyridazine-3-carboxamide] | A (A: ≥60% TYK2 degradation) | A (A: ≥60% TYK2 degradation)
CNC(=O)c1nnc(Nc2ccc(C(=O)NCCOCCNc3cccc4c3C(=O)N(C3CCC(=O)NC3=O)C4=O)cn2)cc1Nc1cccc(-c2ncn(C)n2)c1OC (centres unmarked) [CPD-159, 6-((5-((2-(2-((2-(2,6-dioxopiperidin-3-yl)-1,3-dioxoisoindolin-4-yl)amino)ethoxy)ethyl)carbamoyl)pyridin-2-yl)amino)-4-((2-methoxy-3-(1-methyl-1H-1,2,4-triazol-3-yl)phenyl)amino)-N-methylpyridazine-3-carboxamide] | A (A: ≥60% TYK2 degradation) | A (A: ≥60% TYK2 degradation)
CNC(=O)c1nnc(Nc2ccc(C(=O)NCCCCNc3cccc4c3C(=O)N(C3CCC(=O)NC3=O)C4=O)cn2)cc1Nc1cccc(-c2ncn(C)n2)c1OC (centres unmarked) [CPD-154, 6-((5-((4-((2-(2,6-Dioxopiperidin-3-yl)-1,3-dioxoisoindolin-4-yl)amino)butyl)carbamoyl)pyridin-2-yl)amino)-4-((2-methoxy-3-(1-methyl-1H-1,2,4-triazol-3-yl)phenyl)amino)-N-methylpyridazine-3-carboxamide] | B (B: <60% TYK2 degradation, and >20% TYK2 degradation) | 
CNC(=O)c1nnc(Nc2ccc(CNC(=O)CCCC(=O)N[C@H](C(=O)N3C[C@H](O)C[C@H]3C(=O)N[C@@H](C)c3ccc(-c4scnc4C)cc3)C(C)(C)C)cn2)cc1Nc1cccc(-c2ncn(C)n2)c1OC [CPD-136, N1-((S)-1-((2S,4R)-4-Hydroxy-2-(((S)-1-(4-(4-methylthiazol-5-yl)phenyl)ethyl)carbamoyl)pyrrolidin-1-yl)-3,3-dimethyl-1-oxobutan-2-yl)-N5-((6-((5-((2-methoxy-3-(1-methyl-1H-1,2,4-triazol-3-yl)phenyl)amino)-6-(methylcarbamoyl)pyridazin-3-yl)amino)pyridin-3-yl)methyl)glutaramide] | A (A: ≥60% TYK2 degradation) | B (B: <60% TYK2 degradation, and >20% TYK2 degradation)
